Measured values taken from ChEMBL document CHEMBL4330129 (Bioorg Med Chem, 2019).
≈ marks a conversion by molar mass, not a printed value.

Legend:
Keap1/Nrf2 = Keap1/Nrf2 (Homo sapiens, UniProt Q14145+Q16236); assay: Binding affinity to FLAG/His-tagged Keap1 (unknown origin)/biotinylated full-length FLAG/His/Tev/Avi-tagged NRF2 (unknown origin) expressed in baculovirus infected Sf9 insect cells measured after 1 hr by TR-FRET assay
[1] = Binding affinity to FLAG/His-tagged Keap1 (unknown origin)/biotinylated full-length FLAG/His/Tev/Avi-tagged Cul3 (unknown origin) expressed in baculovirus infected Sf9 insect cells measured after 1 hr by TR-FRET assay; design: species or system Homo sapiens
Homo sapiens = species: Homo sapiens; assay: Activation of Keap1/Cul3/Nrf2 in NHBE cells assessed as induction of HO-1 gene expression at 10 uM after 24 hrs by RT-PCR analysis relative to SFN; type: cell-based
[2] = Lipophilicity, log D of the compound at pH 7.4 by chromatographic method; type: physicochemical; details: buffer
[3] = Kinetic solubility of the compound at pH 7.4 by CLND method; type: physicochemical; details: buffer, read-out: Kinetic_solubility

Sequence of Keap1/Nrf2 (Q16236 whole entry): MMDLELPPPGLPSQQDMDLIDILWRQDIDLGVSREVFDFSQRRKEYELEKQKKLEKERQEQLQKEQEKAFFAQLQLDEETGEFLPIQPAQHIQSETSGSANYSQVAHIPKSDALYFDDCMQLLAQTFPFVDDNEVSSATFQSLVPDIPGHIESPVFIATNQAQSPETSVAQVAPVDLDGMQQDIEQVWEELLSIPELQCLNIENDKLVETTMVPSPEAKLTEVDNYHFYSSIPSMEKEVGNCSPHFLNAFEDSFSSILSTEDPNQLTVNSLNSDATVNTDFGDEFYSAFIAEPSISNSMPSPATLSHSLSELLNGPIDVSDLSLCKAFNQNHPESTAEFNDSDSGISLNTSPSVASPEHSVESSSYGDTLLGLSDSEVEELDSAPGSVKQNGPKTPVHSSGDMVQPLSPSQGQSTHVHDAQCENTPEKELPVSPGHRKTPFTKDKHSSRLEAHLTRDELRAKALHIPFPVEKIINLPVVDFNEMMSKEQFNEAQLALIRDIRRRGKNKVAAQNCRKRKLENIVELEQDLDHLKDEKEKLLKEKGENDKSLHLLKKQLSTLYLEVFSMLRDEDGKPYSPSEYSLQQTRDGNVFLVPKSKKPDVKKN
Sequence of Keap1/Nrf2 (Q14145 whole entry): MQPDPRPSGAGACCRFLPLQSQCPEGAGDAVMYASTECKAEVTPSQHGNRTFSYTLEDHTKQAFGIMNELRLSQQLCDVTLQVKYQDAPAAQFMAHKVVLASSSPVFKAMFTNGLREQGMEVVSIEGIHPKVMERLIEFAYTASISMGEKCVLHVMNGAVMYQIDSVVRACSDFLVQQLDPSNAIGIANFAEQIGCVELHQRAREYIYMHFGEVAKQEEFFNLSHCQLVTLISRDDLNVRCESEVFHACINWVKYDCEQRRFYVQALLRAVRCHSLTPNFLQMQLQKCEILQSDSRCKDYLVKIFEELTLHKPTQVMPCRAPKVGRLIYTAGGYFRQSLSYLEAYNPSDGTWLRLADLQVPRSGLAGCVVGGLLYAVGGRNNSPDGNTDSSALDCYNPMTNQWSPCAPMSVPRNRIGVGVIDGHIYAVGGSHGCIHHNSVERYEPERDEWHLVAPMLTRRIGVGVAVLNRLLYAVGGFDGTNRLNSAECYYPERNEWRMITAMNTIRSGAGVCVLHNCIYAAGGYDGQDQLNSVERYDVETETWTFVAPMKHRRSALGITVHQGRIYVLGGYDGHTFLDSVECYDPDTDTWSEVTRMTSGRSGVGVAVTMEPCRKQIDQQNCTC

SMILES	IC50 (Keap1/Nrf2) [µM]	pIC50 [1]	fold change (FC) (Homo sapiens)	chromatographic logD [2]	solubility kinetic [3] [µM]
CC(=O)NCCCCN=C=S	> 100	4.2	0.54		
CS(=O)(=O)N1CCC(CCN=C=S)C1 (stereo not drawn)	> 100	4.3	4.27	3.87	288 (≈ 67.5 µg/mL)
CN(C)C(=O)/C=C/CCCCC[S+](C)[O-] (stereo not drawn)			0.11		
O=S(=O)(/C=C(\CO)CN1CCC(CN=C=S)CC1)c1ccccc1	25.1	5.6	25.3	7.09	187 (≈ 68.5 µg/mL)
CN1CCC(SC(=S)NCCCCNC(=O)Nc2ccc3ncsc3c2)CC1	7.94	5.4	25.5	1.91	
[O-][S+](CCCCN=C=S)c1ccccn1 (stereo not drawn)	31.6	4.2	1.17	3.16	≥ 372
CN1CCC(SC(=S)NCCCC[S+](C)[O-])CC1 (stereo not drawn)	> 100	< 4	0.93	0.81	≥ 536
Cl.O=C(NCCCCNC(=S)SC1CCNCC1)NC1CCCC1	50.1	4.6	3.46	1.52	≥ 323
CC(C)(C)OC(=O)N1CCC(SC(=S)NCCCCNC(=O)OCc2ccccc2Cl)CC1	2.51	4.8	40.3	7.72	2 (≈ 1.03 µg/mL)
O=C(NCCCCN=C=S)Nc1ccc2scnc2c1	5.01	5.2	3.75	3.77	
CC(=O)NCCSC(=S)NCCCC[S+](C)[O-] (stereo not drawn)	> 100			0.58	≥ 531
CC(C)(C)OC(=O)N1CCC(SC(=S)NCCCCNC(=O)Nc2ccncc2)CC1	31.6	4.6	20.7	4.58	85 (≈ 39.8 µg/mL)
O=C(NCCCCN=C=S)c1cccnc1	50.1	4.1	1.78	2.63	≥ 289
O=C(NCCCCN=C=S)c1ccncc1	> 100	4.4	0.93	2.86	≥ 358
O=C(NCCCCN=C=S)OCc1ccccc1	12.6	5.1	0.63		
CN1CCC(SC(=S)NCCCCS(=O)(=O)c2ccncc2)CC1	100	4.5	2	1.56	≥ 419
CN1CCC(SC(=S)NCCCCNC(=O)OCc2ccccc2Cl)CC1	3.98	5.3	6.26	4.06	280 (≈ 120 µg/mL)
CN1CCC(SC(=S)NCCCCNC(=O)Nc2ccc3c(c2)OCO3)CC1	20	5.1	25.1	2.46	≥ 358
O=S1(=O)CCC(CN=C=S)C1 (stereo not drawn)	> 100	4.4	0.37	1.82	≥ 639
CSc1c(N(C)CCCC[S+](C)[O-])c(=O)c1=O (stereo not drawn)			0.14		
O=S(=O)(CC1(N2CCC(CN=C=S)C2)COC1)c1ccccc1 (stereo not drawn)	50.1	4.7	8.15	5.02	242 (≈ 85.3 µg/mL)
O=C(CC1CCCCC1)NCCCCN=C=S	25.1	4.8	11.5		≥ 413
CN(C)CCS(=O)(=O)CCCCN=C=S	> 100	4.4	3.25	2.84	376 (≈ 94.1 µg/mL)

SMILES	IC50 (Keap1/Nrf2) [µM]	pIC50 [1]	fold change (FC) (Homo sapiens)	chromatographic logD [2]	solubility kinetic [3] [µM]
CC(=O)NCCS(=O)(=O)CCCCN=C=S	> 100	4.2	0.37	1.8	≥ 422
CC(C)(C)OC(=O)N1CCC(SC(=S)NCCCCNC(=O)Nc2cccnc2)CC1	50.1	4.3	2.88	4.97	114 (≈ 53.3 µg/mL)
O=C(NCCCCN=C=S)Nc1ccc2c(c1)OCCO2	15.8	4.9	0.65	4.04	131 (≈ 40.3 µg/mL)
CC(=O)NCC[S+]([O-])CCCCN=C=S (stereo not drawn)	> 100	< 4	0.15	1.09	≥ 180
CN(C)C(=O)/C(C#N)=C/CCCCCS(C)(=O)=O			0.18		
CN1CCC(SC(=S)NCCCCNC(=O)Nc2ccc3c(c2)OCCO3)CC1	12.6	5	23.6	2.24	
O=C(NCCCCN=C=S)Nc1ccc2c(c1)OCO2	6.31	5	10.5	4.25	42 (≈ 12.3 µg/mL)
Cc1ccccc1[S+]([O-])CCCCN=C=S (stereo not drawn)	63.1	4.6	1.3	4.69	362 (≈ 91.7 µg/mL)
O=C(NCCCCN=C=S)NCc1ccccc1	15.8	4.7	6.42	4.29	247 (≈ 65.1 µg/mL)
C[S+]([O-])CCCCNC(=S)SC1CCNCC1.O=C(O)C(F)(F)F (stereo not drawn)	> 100	< 4	0.34	0.22	255
CN1CCC(SC(=S)NCCCCNC(=O)CC2CCCCC2)CC1	15.8	5	11.5	3.28	
CC(C)(C)OC(=O)N1CCC(SC(=S)NCCCCNC(=O)Nc2ccc3c(c2)OCCO3)CC1	31.6	4.4	74.8	5.79	
CN(C)C(=O)CCCCN=C=S	> 100	4.2	0.71		
O=C(NCCCCN=C=S)C1CCCCC1	50.1	4.4	1.13		369 (≈ 88.7 µg/mL)
O=C(NCCCN=C=S)OCc1ccccc1	5.01	5	32.2		
CNC(=O)CCCCN=C=S	> 100	4.1	0.7		
CN(C)C(=O)/C(C#N)=C/CCCCC[S+](C)[O-] (stereo not drawn)			0.33		
CC[S+]([O-])C(=O)N(CCCC[S+](C)[O-])Cc1ccccc1 (stereo not drawn)			0.27		
COCCOC(=O)NCCCCN=C=S	> 100	< 4	0.17		1 (≈ 0.232 µg/mL)
CC(C)(C)OC(=O)N1CCC(SC(=S)NCCCCNC(=O)Nc2ccc3ncsc3c2)CC1	31.6	4.7	18.3	5.45	
C[S+]([O-])CCCCCCN=C=S (stereo not drawn)	> 100			0.9	≥ 324
CN(C)C(=O)/C=C/CCCCCS(C)(=O)=O			0.13		
